For 13 compounds, IC50 results are on record in PubChem BioAssay AID1418 (Emory University Molecular Libraries Screening Center, 2008).

Calls of active or inactive are those of the source. No rule for the calls is given here.

In this experiment the target is Induced myeloid leukemia cell differentiation protein Mcl-1 (Homo sapiens) (UniProt Q07820). In words: blockers of Bid binding to Mcl-1 – biochemical, TR-FRET, dose response (AID 1418). Particulars: Mcl-1/Bid peptide binding, TR-FRET (europium/Dy647), 2 hr. Background: Time-resolved FRET reads energy transfer from a long-lived donor to a nearby acceptor.
Chain of Induced myeloid leukemia cell differentiation protein Mcl-1 (Homo sapiens) (Q07820 whole entry, looked up): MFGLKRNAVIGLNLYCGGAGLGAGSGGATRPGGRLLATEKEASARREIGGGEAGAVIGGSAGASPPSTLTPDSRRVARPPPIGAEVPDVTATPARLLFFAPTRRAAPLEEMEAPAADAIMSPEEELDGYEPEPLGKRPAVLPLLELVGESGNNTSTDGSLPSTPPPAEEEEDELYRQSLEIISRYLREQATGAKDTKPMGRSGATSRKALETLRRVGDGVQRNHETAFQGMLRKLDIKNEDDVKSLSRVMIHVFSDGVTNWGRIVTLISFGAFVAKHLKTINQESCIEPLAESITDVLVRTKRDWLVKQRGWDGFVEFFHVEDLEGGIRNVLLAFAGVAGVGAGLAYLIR
The term IC50 denotes the concentration that inhibits the measured activity by half. As for `CC(=O)c1c(N=CN(C)C)nc(C)nc1-c1ccccc1`, the IC50 is > 54 µM (inactive).

`Clc1cccc(Cl)c1CON/C=N/c1ncnc2sccc12`: the IC50 is > 54 µM (inactive).

As to `O=C(O)[C@@H](c1ccccc1)N1Cc2ccccc2C1=O`, the IC50 is 0.54 µM.

Consider `CCOC(=O)c1cc(-c2ccccc2)n(CC(=O)N2CCCC2)c1C`, for which the IC50 was > 54 µM (inactive).

Consider `CCOC(=O)Nc1ccc2c(c1)N(C(=O)OCCN(C)C)c1ccccc1CC2`, for which the IC50 is > 54 µM (inactive).

Regarding `Cc1ccc(NC(=O)C(=O)NCc2ccc(/C=C(/C#N)C(=O)NCc3cccnc3)o2)cc1C`, the IC50 is > 54 µM (inactive).

Take `COc1cccc(OC)c1C(=O)N1CCN(Cc2ccncc2)CC1`: the IC50 was > 54 µM (inactive).

Regarding `O=c1oc2c(O)c(O)cc3c(=O)oc4c(O)c(O)cc1c4c23`, the IC50 is 0.57 µM.

As for `O=C(NNC(=O)c1ccccc1Cl)c1ccccc1Cl`, the IC50 was > 54 µM (inactive).

Consider `O=C(Nc1ccc2c(c1)OCCO2)NC1(C(F)(F)F)Oc2ccccc2O1`, for which the IC50 was > 54 µM (inactive).

For the compound `C#CCOCCOCCOCCNc1nc(N2CCN(C(=O)[C@H](CCC(=O)O)n3cc(C(N)CC(C)C)nn3)CC2)nc(N2CCN(C(=O)[C@H](CCC(=O)O)n3cc(C(N)[C@H](C)CC)nn3)CC2)n1` (stereo partly drawn), the IC50 was 1 µM.

Turning to `COc1cc(/C=C2/SC(N)=NC2=O)ccc1Oc1ccc([N+](=O)[O-])cc1[N+](=O)[O-]`, the IC50 was 3.5 µM.

On to `COc1ccccc1N1CCN(CC(=O)c2c(C)[nH]c3ccccc23)CC1`, for which the IC50 is > 54 µM (inactive).
